From patent publication US20250059162A1, “MULTI-PROTEIN DEGRADATION AGENT HAVING IMIDE SKELETON” (SUZHOU KINTOR PHARMACEUTICALS, INC., priority 2021, published 2025)

What was measured:
Type in all cases: cell-based
GSPT1 protein = molecular target: T1, GSPT1 protein (Homo sapiens, UniProt P15170); test: GSPT1 protein degradation in HL60 cells (Western blot); settings: for remaining GSPT1 protein at 0.01 µM: HL-60, compound at 10 nM, 24 h, gray value relative to Ctrl (DMSO), read-out: Remaining amount of GSPT1 protein (@10 nM/Ctrl)
T1 construct: degradation of myc and GSPT1 proteins in HL60 cells; endogenous in cells; host or cells: HL60
T1 sequence (P15170 whole entry): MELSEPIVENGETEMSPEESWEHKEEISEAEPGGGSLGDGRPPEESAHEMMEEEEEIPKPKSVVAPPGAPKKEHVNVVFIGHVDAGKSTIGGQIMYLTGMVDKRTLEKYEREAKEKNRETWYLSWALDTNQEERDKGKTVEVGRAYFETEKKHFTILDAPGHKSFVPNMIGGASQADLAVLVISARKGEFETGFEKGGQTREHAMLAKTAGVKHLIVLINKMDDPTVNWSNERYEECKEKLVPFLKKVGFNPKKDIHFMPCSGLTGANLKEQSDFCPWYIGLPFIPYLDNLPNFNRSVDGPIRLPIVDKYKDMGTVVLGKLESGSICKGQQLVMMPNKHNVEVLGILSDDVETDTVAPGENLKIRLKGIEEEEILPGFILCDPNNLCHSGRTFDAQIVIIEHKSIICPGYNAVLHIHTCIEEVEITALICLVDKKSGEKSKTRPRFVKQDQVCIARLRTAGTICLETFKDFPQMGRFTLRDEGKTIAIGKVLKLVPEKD
Description: (§1) HL60 cells in the exponential growth phase were digested and plated into a 6-well plate at 1×10^6 cells per well. The cell culture medium was RPMI-1640 (meilunbio, MA0215). After a day of adherent growth of the cells, the compound of the present invention was added as a test drug for culture, and proteins were extracted 24 h later (Ctrl meant adding only DMSO at the same volume).
(§2) In the 6-well plate, the culture medium RPMI-1640 (meilunbio, MA0215) was removed, and the cells were washed once with PBS, digested with trypsin, and centrifuged and collected separately into 1.5 mL centrifuge tubes. 100 μL of RIPA lysis buffer (containing 100 μM PMSF) was added to each tube, mixed thoroughly, allowed to stand on ice for 30 min and then centrifuged at 12000 rpm at 4° C. using a centrifuge for 20 min. The supernatant was used for Western blotting experiments. The sample can be stored at −80° C.
(§3) By using the BCA protein concentration determination kit (from Thermo Fisher, Cat. No. 23225), the BSA standard determination solution and the samples to be tested (the samples to be tested can be diluted and then tested) were prepared according to the table A below. Samples were added to the 96-well plate. Each well was supplemented with PBS to 20 μL, and then 200 μL of BCA working solution (prepared according to the kit) was added respectively and mixed evenly. The plate was placed at 60° C. for 10 min, and then the absorbance at 562 nm was detected. After the reading was recorded, a standard curve was plotted using concentration gradients of the standards, and the absorbance of the samples was substituted to calculate the protein concentration of the samples.
(§4) • 2.1 Protein denaturation: RIPA protein buffer (purchased from Solarbio, Cat. No. R0010) and 5× Loading Buffer (SDS, glycerin, bromophenol blue, TRIS) (purchased from Solarbio, Cat. No. P1040) were added, and the protein samples were denatured at 100° C. for 5 min. • 2.2 Sample loading and electrophoresis: 10% precast gel and the corresponding electrophoresis buffer were used. The same mass of protein sample and protein ladder (purchased from thermo, Cat. No. 26617) were loaded into each well, and electrophoresis at 200 V was performed for 30 min. • 2.3 […]: The gel was excised to remove the excess part. Transferring to PVDF membrane was performed by the wet transfer method (before use, it was necessary to activate the PVDF membrane with methanol for 1 min) at 300 mA for 2 h, during which a lot of heat was generated, and thus cooling with an ice box was required. • 2.4 Blocking: After the transferring, the PVDF membrane was placed in 5% skim milk and blocked with shaking at room temperature for 1 h. • 2.5 Incubating with primary antibody: The PVDF membrane was cut according to the molecular weight indicated on the marker and placed in c-myc (purchased from abcam, Cat. No. ab32072), or GSPT1 (purchased from abcam, Cat. No. ab234433), or CK1α (purchased from abcam, Cat. No. ab206652), or IKZF2 (purchased from proteintech, Cat. No. 13554-1-AP), and GAPDH (purchased from CST, Cat. No. #97166) primary antibodies. The antibodies were diluted with TBST buffer (a solution prepared from TRIS, KCL and NaCl and adjusted to pH 7.4 with hydrochloric acid, and Tween 20 was added) at a ratio of 1:1000, and blocked overnight on a shaker at 4° C. • 2.6 Incubating with secondary antibody: The PVDF membrane incubated with the primary antibody was washed with TBST for 3 times, each time for 10 min. After washing, the membrane was placed in the secondary antibody of the corresponding species, and incubated at room temperature in a shaker for 2 h. • 2.7 Washing membrane and exposure: After incubated with the secondary antibodies, the membrane was washed 3 times with TBST on a shaker, 10 minutes each time. […]

HL60 cells = test: Anti-proliferation on HL60 cells (CellTiter-Glo, 3 days); settings: Homo sapiens, HL-60, 72 h, 3 days incubation, CTG luminescence, IC50 by XLfit, read-out: HL60 cells Proliferation inhibitory activity
Description: HL60 cells (Cell Bank of Chinese Academy of Sciences) in the logarithmic growth phase were counted and plated evenly in a 96-well transparent bottom white plate at 20000 cells per well and 100 μL per well.
A certain amount of the compound of the present invention was weighed and diluted with DMSO to a 10 mM stock solution. The culture medium RPMI-1640 (meilunbio, MA0215) corresponding to the cells were taken, and the compound was diluted to the concentration required by the test, shaken gently and mixed evenly. 50 μL of the gradient dilution of the diluted compound was added to each well of the plated cells, and 50 μL of 0.1% DMSO was added to the control group. The plate was shaken gently, mixed evenly and incubated in a cell culture incubator for 3 days.
• 3.1 The CellTiter-Glo™ (CTG) (purchased from Promega, Cat. No. G9242) reagent was taken in advance from the −20° C. refrigerator and equilibrated to room temperature in the dark. Cell Titer-Glo buffer and Cell Titer-Glo substrate were mixed at a ratio of 1:1 to prepare a CTG detection reagent. • 3.2 The 96-well plate was taken out and inspected under a microscope for growth. • 3.3 The bottom of the 96-well plate was tagged with white paper, and then the plate was wrapped with tin foil paper, shaken at 37° C. at 300 r for 10 min and mixed evenly. • 3.4. 50 μL of CTG detection reagent was added to each well, Luminescence signal was detected using a microplate reader Biotek Synergy Hi, and the inhibition rate was calculated. IC50 values of the compounds were calculated by XLfit 5.5.0 software to evaluate the proliferation inhibitory activity on HL60 cells.

c-Myc protein = molecular target: T2, c-Myc protein (Homo sapiens, UniProt P01106); test: c-Myc protein degradation in HL60 cells (Western blot); settings: HL-60, compound at 10 nM, 24 h, gray value relative to Ctrl (DMSO), read-out: Remaining amount of c-Myc protein (@10 nM/Ctrl)
T2 construct: degradation of myc and GSPT1 proteins in HL60 cells; endogenous in cells; host or cells: HL60
T2 sequence (P01106 whole entry): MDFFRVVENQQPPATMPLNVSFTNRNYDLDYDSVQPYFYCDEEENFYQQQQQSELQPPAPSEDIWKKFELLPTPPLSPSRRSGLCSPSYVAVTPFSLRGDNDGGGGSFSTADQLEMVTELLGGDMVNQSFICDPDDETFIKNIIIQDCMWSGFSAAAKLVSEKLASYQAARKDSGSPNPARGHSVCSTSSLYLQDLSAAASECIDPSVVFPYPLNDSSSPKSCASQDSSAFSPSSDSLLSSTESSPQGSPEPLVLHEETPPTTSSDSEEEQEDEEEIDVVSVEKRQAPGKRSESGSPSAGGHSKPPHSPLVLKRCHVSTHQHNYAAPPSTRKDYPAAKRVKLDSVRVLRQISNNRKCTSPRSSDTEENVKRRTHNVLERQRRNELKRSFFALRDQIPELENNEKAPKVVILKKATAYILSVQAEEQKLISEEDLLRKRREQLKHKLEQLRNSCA
Description: as §1, §2, §3, §4

## O=C1CCC(N2Cc3cc(CNCC4CCN(c5ncc(-c6ccc(Cl)cc6)cc5F)CC4)ccc3C2=O)C(=O)N1 (stereo not drawn) [Compound A74]
GSPT1 protein
  remaining GSPT1 protein at 0.01 µM: 10%
HL60 cells
  IC50: 1.1 nM
c-Myc protein
  remaining activity at 0.01 µM: 104%

## O=C1CCC(N2Cc3cc(C(=O)NCC4CCN(c5nccc(-c6ccc7ccccc7c6)n5)CC4)ccc3C2=O)C(=O)N1 (stereo not drawn) [Compound A38]
HL60 cells
  IC50: 0.9 nM
c-Myc protein
  remaining activity at 0.01 µM: 52%

## Cc1cccc(-c2cnc(N3CCC(CNCc4ccc5c(c4)CN(C4CCC(=O)NC4=O)C5=O)CC3)nc2)c1 (stereo not drawn) [Compound A68]
GSPT1 protein
  remaining GSPT1 protein at 0.01 µM: 0%
HL60 cells
  IC50: < 0.2 nM
c-Myc protein
  remaining activity at 0.01 µM: 0%

## O=C1CCC(N2Cc3cc(CNCC4CCN(c5ncc(-c6cccc(F)c6)cc5F)CC4)ccc3C2=O)C(=O)N1 (stereo not drawn) [Compound A108]
GSPT1 protein
  remaining GSPT1 protein at 0.01 µM: 29%
HL60 cells
  IC50: < 0.2 nM
c-Myc protein
  remaining activity at 0.01 µM: 2%

## O=C1CCC(N2Cc3cc(CNCC4CCN(c5ncc(-c6cccc(Cl)c6)cn5)CC4)ccc3C2=O)C(=O)N1 (stereo not drawn) [Compound A66]
HL60 cells
  IC50: < 0.2 nM
c-Myc protein
  remaining activity at 0.01 µM: 9%

## O=C1CCC(N2Cc3cc(NC(=O)CC4CCN(c5ncc(-c6cccc7ccccc67)s5)CC4)ccc3C2=O)C(=O)N1 (stereo not drawn) [Compound A24]
HL60 cells
  IC50: 0.5 nM
c-Myc protein
  remaining activity at 0.01 µM: 0%

## O=C1CCC(N2Cc3cc(NC(=O)CC4CCN(c5cc(-c6cccc7ccccc67)ccn5)CC4)ccc3C2=O)C(=O)N1 (stereo not drawn) [Compound A17]
HL60 cells
  IC50: 1.2 nM
c-Myc protein
  remaining activity at 0.01 µM: 23%

## O=C1CCC(N2Cc3cc(NC(=O)CC4CCN(c5ncc(-c6cccc7ccccc67)o5)CC4)ccc3C2=O)C(=O)N1 (stereo not drawn) [Compound A28]
HL60 cells
  IC50: 0.9 nM
c-Myc protein
  remaining activity at 0.01 µM: 43%

## O=C1CCC(n2nc3cc(CNCC4CCN(c5ncc(-c6cccc(Cl)c6)cc5C(F)(F)F)CC4)ccn3c2=O)C(=O)N1 (stereo not drawn) [Compound A146]
GSPT1 protein
  Degradation of GSPT1 protein in HL60 cells at 300 nM (FIG. 2, FIG. 3, in words): significantly degrade GSPT1 protein
HL60 cells
  IC50: 139 nM

## O=C1CCC(N2Cc3cc(C(=O)NCC4CCN(c5ncc(-c6cccc7ccccc67)cn5)CC4)ccc3C2=O)C(=O)N1 (stereo not drawn) [Compound A29]
HL60 cells
  IC50: 0.2 nM
c-Myc protein
  remaining activity at 0.01 µM: 13%

## O=C1CCC(N2Cc3cc(NC(=O)CC4CCN(c5ncc(-c6cccc7ccccc67)cn5)CC4)ccc3C2=O)C(=O)N1 (stereo not drawn) [Compound A30]
HL60 cells
  IC50: < 0.2 nM
c-Myc protein
  remaining activity at 0.01 µM: 14%

## O=C1CCC(N2Cc3cc(NC(=O)CC4CCN(c5ccc(-c6cccc7cccnc67)cn5)CC4)ccc3C2=O)C(=O)N1 (stereo not drawn) [Compound A43]
HL60 cells
  IC50: < 0.2 nM
c-Myc protein
  remaining activity at 0.01 µM: 23%

## O=C1CCC(N2Cc3cc(NC(=O)CC4CCN(c5ncc(-c6cccc(Cl)c6)cn5)CC4)ccc3C2=O)C(=O)N1 (stereo not drawn) [Compound A53]
HL60 cells
  IC50: < 0.2 nM
c-Myc protein
  remaining activity at 0.01 µM: 10%

## O=C1CCC(N2Cc3cc(NC(=O)CC4CCN(c5ccc(-c6cccc7cccc(F)c67)cn5)CC4)ccc3C2=O)C(=O)N1 (stereo not drawn) [Compound A47]
HL60 cells
  IC50: < 0.2 nM
c-Myc protein
  remaining activity at 0.01 µM: 19%

## O=C1CCC(N2Cc3nc(CNCC4CCN(c5ncc(-c6cccc(Cl)c6)cc5C(F)(F)F)CC4)ccc3C2=O)C(=O)N1 (stereo not drawn) [Compound A141]
HL60 cells
  IC50: 160 nM

## O=C1CCC(NC(=O)c2ccc(C(=O)NCC3CCN(c4ncc(-c5cccc(Cl)c5)cc4C(F)(F)F)CC3)cc2)C(=O)N1 (stereo not drawn) [Compound A166]
HL60 cells
  IC50: 2670 nM

## O=C1CCC(N2Cc3ccc(CNCC4CCN(c5ncc(-c6cccc(Cl)c6)cc5C(F)(F)F)CC4)cc3C2)C(=O)N1 (stereo not drawn) [Compound A145]
GSPT1 protein
  Degradation of GSPT1 protein in HL60 cells at 300 nM (FIG. 2, FIG. 3, in words): significantly degrade GSPT1 protein
HL60 cells
  IC50: 387 nM

## O=C1CCC(N2Cc3cc(NC(=O)CC4CCN(C(=O)NCc5cccc6ccccc56)CC4)ccc3C2=O)C(=O)N1 (stereo not drawn) [Compound A1]
HL60 cells
  IC50: 190 nM

## O=C1CCC(N2Cc3cc(NC(=O)CC4CCN(C(=O)Cn5c6ccccc6c6cccnc65)CC4)ccc3C2=O)C(=O)N1 (stereo not drawn) [Compound A11]
HL60 cells
  IC50: 39 nM

## O=C1CCC(N2Cc3cc(NC(=O)CC4CCN(c5cccc(-c6cccc7ccccc67)n5)CC4)ccc3C2=O)C(=O)N1 (stereo not drawn) [Compound A15]
HL60 cells
  IC50: 1 nM

## COc1cccc(-c2cnc(N3CCC(CNCc4scc5c4CN(C4CCC(=O)NC4=O)C5=O)CC3)c(C(F)(F)F)c2)c1 (stereo not drawn) [Compound A144]
HL60 cells
  IC50: 752 nM

## O=C1CCC(N2Cc3cc(NC(=O)CC4CCN(c5ccc(-c6ccc7ccccc7c6)cn5)CC4)ccc3C2=O)C(=O)N1 (stereo not drawn) [Compound A41]
HL60 cells
  IC50: 0.2 nM

## O=C1C[C@@H](N2Cc3cc(CNCC4CCN(c5ncc(-c6cccc(Cl)c6)cc5C(F)(F)F)CC4)ccc3C2=O)C(=O)N1 [Compound A171]
HL60 cells
  IC50: 1570 nM

## O=C1CCC(N2Cc3cc(C(=O)NCC4CCN(c5cccc(-c6cccc7ccccc67)c5)CC4)ccc3C2=O)C(=O)N1 (stereo not drawn) [Compound A21]
HL60 cells
  IC50: 2.9 nM

## O=C1CCC(N2Cc3cc(C(=O)NCC4CCN(c5ccc(-c6nccc7ccccc67)cn5)CC4)ccc3C2=O)C(=O)N1 (stereo not drawn) [Compound A45]
HL60 cells
  IC50: < 0.2 nM

## O=C1CCC(N2Cc3cc(NC(=O)CC4CCN(c5ccc(-c6cccc7ccccc67)nc5)CC4)ccc3C2=O)C(=O)N1 (stereo not drawn) [Compound A37]
HL60 cells
  IC50: 0.2 nM
c-Myc protein
  remaining activity at 0.01 µM: 44%

## O=C(CN1CCC(CNC(=O)c2ccc3c(c2)CN(C2CCC(=O)NC2=O)C3=O)CC1)NCCn1c2ccccc2c2cccnc21 (stereo not drawn) [Compound A7]
HL60 cells
  IC50: 94 nM

## O=C1CCC(N2Cc3cc(CNCC4CCN(c5ncc(-c6cc(F)cc(Cl)c6)cc5C(F)(F)F)CC4)ccc3C2=O)C(=O)N1 (stereo not drawn) [Compound A115]
HL60 cells
  IC50: 1.5 nM

## CN(C(=O)c1ccc(CNCC2CCN(c3ncc(-c4cccc(Cl)c4)cc3C(F)(F)F)CC2)cc1)C1CCC(=O)NC1=O (stereo not drawn) [Compound A163]
HL60 cells
  IC50: 8220 nM
